Laboratory results: patent EP1059033A1, “INDUSTRIAL ANTIBACTERIAL/ANTIFUNGAL AGENTS, ALGICIDES AND ANTI-BIOLOGICAL ADHESION AGENTS CONTAINING BENZYLAMINES” (Nissan Chemical Industries, Ltd., priority 1998, dated 1999)
Converted amounts (≈) assume the structure as drawn. Where two headings read alike, the source gives them in different places.

Tests used:
Format in all cases: cell-based
[1] = test system: freshwater green alga (Selenastrum capricornutum); experiment: Inhibition of propagation of freshwater green alga (Example 4); conditions: after 72 hours, cell number vs non-treated lot; for inhibition at 0.05 ppm: 50ppb, read-out: Propagation inhibiting rate(%) 50ppb; for inhibition at 0.5 ppm: 500ppb, read-out: Propagation inhibiting rate(%) 500ppb
Procedure: A predetermined amount of each of the compounds of the invention was dissolved in a culture medium containing 10^5 /ml of a freshwater green alga (Selenastrum capricornutum) at a logarithmic growth phase to prepare samples having a concentration of the compound of the invention in the medium of 500 ppb and 50ppb respectively. The samples were stationary cultured at 23±1 °C for […] under continuous illumination.
After 72 hours, the number of cells was measured using a hemacytometer to obtain propagation rate. The propagation inhibiting rate was calculated from comparison with the non-treated lot.

[2] = test system: seawater diatom [Nitzschia closterium]; experiment: Inhibition of propagation of seawater diatom (Example 5); conditions: Cylindrotheca closterium, 72 h, read-out: Propagation inhibiting rate(%) 500ppb
Procedure: A predetermined amount of each of the compounds of the invention was dissolved in culture media containing 10^5 /ml of a seawater diatom [Nitzschia closterium] at a logarithmic growth phase to prepare samples having a concentration of the compound in the medium of 500 ppb. The samples were stationary cultured at 22±1 °C for […] under continuous illumination.
After 72 hours, cells were collected by centrifugation and disrupted by addition of methanol to extract chlorophyll, and the amount of chlorophyll was measured from absorbance using a spectrophotometer to obtain propagation rate. The propagation inhibiting rate was calculated from comparison with the non-treated lot.

[3] = test system: Trichophyton mentagrophytes; conditions: 72 h, 100 ppm
Procedure: 31.3 ml of Trichophyton mentagrophytes to be tested was added to 125 ml of a potato dextrose agar culture medium (Nissui Seiyaku Co.). The medium was stirred not to foam the solutions, poured into plates uniformly and solidified.
Thereafter, predetermined amounts of the compounds of the invention were weighted and diluted with acetone to predetermined concentrations.
Paper disks were impregnated with samples containing predetermined amounts of the compounds of the invention, laid on a filter, dried with air and placed on a plate containing test microbe at equal intervals.
Trichophyton mentagrophytes was cultured at 28 °C for 3 days in a thermostatic chamber and the diameter of each inhibiting zone was measured to evaluate the activity of each compound. Symbols in the table mean the followings; • A: Trichophyton mentagrophytes, • ++: strongly inhibiting zone (equal to or more than 21 mm) is observed, • +: inhibiting zone (10 to 20 mm) is observed, • -: no inhibiting zone is observed.

[4] = test system: Trichophyton mentagrophytes; experiment: Agar dilution MIC (Example 2); conditions: 168 h, agar plate, 27 °C, 7 days
Procedure: (§1) Series of diluted samples (20000, 10000, 5000, 2500, 2000, 1250, 625, 313, 156, 78, 39, 20, 10, 5, 2.5, 1.25 mg/l) of the compounds of the invention were prepared using dimethylsulfoxide. A sensitive culture medium-N (Nissui Seiyaku Co.) was used for bacteria and a potato dextrose agar culture medium (Nissui Seiyaku Co.) was used for fungi. 0.5 ml of each sample was added to and mixed with 9.5 ml of the culture medium, poured into a Petri dish and solidified to obtain a plate. As a result, the concentration of the compounds of the invention in the agar culture medium were 1000, 500, 250, 125, 100, 62.5, 31.3, 15.6, 7.8, 3.9, 2.0, 1.0, 0.5, 0.25, 0.125, 0.062 mg/l. The bacterium inoculated were cultured in a bouillon for the assay of sensitivity (Nissui Seiyaku Co.) at 37 °C for 20 hours, and the fungi were cultured in the potato dextrose agar culture medium (Nissui Seiyaku Co.) for 10 days and then a 10^6 CFU/ml suspension was prepared from each of them. A test bacteria or fungi suspension was streaked on an agar plate containing the compound of the present invention with platinum wire loop, and the agar plate was cultured at 37±1 °C for 18 to 20 hours for bacteria or at 27 °C for 7 days for fungi. A concentration at which no growth was seen was taken as minimum inhibitory concentration [MIC(mg/l)]. Symbols in the table mean the followings; • A: Bacillus subtilis, • B: Trichophyton mentagrophytes, • C: Rhodotorula mucilaginosa.

Rhodotorula mucilaginosa = experiment: Agar dilution MIC (Example 2); conditions: 168 h, agar plate, 27 °C, 7 days
Procedure: as §1

[5] = test system: freshwater blue-green alga (Microcystis aeruginosa); experiment: Inhibition of propagation of freshwater algae (Example 6); conditions: 500ppb
Procedure: (§2) A predetermined amount each of the compounds of the invention was dissolved in a culture medium containing 10^5 /ml of a freshwater alga at a logarithmic growth phase to prepare samples having a concentration of the compound of the invention in the medium of 500 ppb and 50 ppb respectively. A shaking culture at 100 rpm was performed for […] under continuous illumination at 20±2 °C for freshwater diatom and at 23±2 °C for other algae.
(§3) After 72 hours and 168 hours, the […] of cells was measured using a hemacytometer to obtain propagation rate. The propagation inhibiting rate was calculated from comparison with the non-treated lot. Symbols in the tables mean the followings; • A: freshwater green alga (Chlorella pyrenoidosa), • B: freshwater blue-green alga (Microcystis aeruginosa), • C: freshwater diatom (Diatoma elongatum), • D: freshwater green alga (Scenedesmus pannonicus).

[6] = test system: freshwater diatom (Diatoma elongatum); experiment: as above; conditions: Diatoma tenuis; for inhibition at 0.05 ppm: 50ppb; for inhibition at 0.5 ppm: 500ppb
Procedure: as §2, §3

[7] = test system: freshwater green alga (Scenedesmus pannonicus); experiment: as above; conditions: Desmodesmus pannonicus, 500ppb
Procedure: as §2, §3

[8] = test system: freshwater green alga (Chlorella pyrenoidosa); experiment: as above; conditions: Auxenochlorella pyrenoidosa, 500ppb, 168hr, read-out: Propagation inhibiting rate(%) 500ppb 168hr
Procedure: as §2, §3

[9] = 72hr, read-out: Propagation inhibiting rate(%) 500ppb 72hr
[10] = 168hr, read-out: Propagation inhibiting rate(%) 500ppb 168hr

| Compound | MIC [4] | MIC (Rhodotorula mucilaginosa) | inhibition at 0.05 ppm [1] | inhibition at 0.5 ppm [1] | inhibition at 0.5 ppm [2] | Judgment (Target bacteria: A) [3] | other results |
| --- | --- | --- | --- | --- | --- | --- | --- |
| CC(C)c1ccc(CN(C)Cc2cccc3ccccc23)cc1 [Compound 29] | – | – | 95% | 96% | 76% | ++ (strongly inhibiting zone (equal to or more than 21 mm) is observed) | – |
| CN(Cc1ccc(Cl)cc1)Cc1cccc2ccccc12 [Compound 31] | – | – | 88% | 95% | – | + (inhibiting zone (10 to 20 mm) is observed) | inhibition at 0.5 ppm [5, 9]: 90%; inhibition at 0.5 ppm [5, 10]: 100%; inhibition at 0.05 ppm ([6]; 72hr, read-out: Propagation inhibiting rate(%) 50ppb 72hr): 61%; inhibition at 0.05 ppm ([6]; 168hr, read-out: Propagation inhibiting rate(%) 50ppb 168hr): 87%; inhibition at 0.5 ppm [6, 9]: 81%; inhibition at 0.5 ppm [6, 10]: 95%; inhibition at 0.5 ppm ([7]; 168hr, read-out: Propagation inhibiting rate (%) 500ppb 168hr): 79% |
| CC(C)Cc1ccc(CN(C)Cc2cccc3ccccc23)cc1 [Compound 32] | < 1 µg/mL | – | – | 86% | – | – | inhibition at 0.5 ppm [8]: 75%; inhibition at 0.5 ppm ([7]; 72hr, read-out: Propagation inhibiting rate (%) 500ppb 72hr): 83% |
| CN(Cc1ccc(C(C)(C)CCl)cc1)Cc1cccc2ccccc12 [Compound 35] | 7.8 µg/mL (≈ 22.2 µM) | 7.8 µg/mL (≈ 22.2 µM) | 75% | 94% | – | – | – |
| CN(Cc1c(Cl)cccc1Cl)Cc1cccc2ccccc12 [Compound 48] | – | – | – | 77% | 77% | – | – |

Now from value to molecule, other results behind:

| MIC [4] | MIC (Rhodotorula mucilaginosa) | Compound | inhibition at 0.05 ppm [1] | inhibition at 0.5 ppm [1] | inhibition at 0.5 ppm [2] | Judgment (Target bacteria: A) [3] | other results |
| --- | --- | --- | --- | --- | --- | --- | --- |
| < 0.062 µg/mL | 15.6 µg/mL (≈ 49.1 µM) | CN(Cc1ccc(C(C)(C)C)cc1)Cc1cccc2ccccc12 [Compound 30] | – | 94% | – | ++ (strongly inhibiting zone (equal to or more than 21 mm) is observed) | – |
| 7.8 µg/mL (≈ 24.2 µM) | 62.5 µg/mL (≈ 194 µM) | CC(C)(C)c1ccc(CNCc2ccc(Cl)c(Cl)c2)cc1 [Compound 34] | – | 98% | 100% | – | – |
| 15.6 µg/mL (≈ 49.3 µM) | 62.5 µg/mL (≈ 198 µM) | Clc1ccc(CNCc2cccc3ccccc23)cc1Cl [Compound 49] | – | 97% | 100% | – | – |
